Marks after values point to notes of the source that are not given here.
Tested on: osteoclast differentiation
Experiment: Osteoclast differentiation in co-culture of mouse bone marrow cells and ST2 cells, TRAP staining (Examples 8-9)
Format: cell-based
Conditions: for % number of osteoclast (vs. solvent control group): day 7; for activity at 0.1 µM: Mus musculus, Osteoclast, 168 h, day 7, read-out: % number of osteoclast (vs. solvent control group)
In short: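 Readout was TRAP-positive multinucleated (≥6 nuclei) cells on day 7, reported as % of 0.1% DMSO control, mean±SD of 4 wells. Cells were mouse (male ddY) bone marrow plus ST2 co-cultures driven by 10^−8 M vitamin D3/dexamethasone. Benzamidines, alendronic acid or risedronic acid were added at 0.1 μM alone or combined, with media renewed days 3 and 5.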

[1] = Combination treatment (alendronic acid + compounds), 0.1 μM each
[2] = Combination treatment (risedronic acid + compounds), 0.1 μM each
[3] = Individual treatment (compounds), 0.1 μM

| Compound | % number of osteoclast (vs. solvent control group) [1] | % number of osteoclast (vs. solvent control group) [2] | activity at 0.1 µM [3] [%] | % number of osteoclast (vs. solvent control group) [3] [%] |
| --- | --- | --- | --- | --- |
| Cc1nc(-c2ccc(OCCCCCOc3ccc(C(=N)NO)cc3)cc2)c(CN2CCCCC2)s1 [Compound 296, N-hydroxy-4-{5-[4-(2-methyl-5-piperidin-1-ylmethyl-thiazol-4-yl)-phenoxy]-pentyloxy}-benzamidine] | 13 ± 2.6^ab % | 8 ± 1.7^ac % | 46 ± 3.6 |  |
| CCNc1nc(-c2ccc(OCCCCCOc3ccc(C(=N)NO)cc3)cc2)cs1 [Compound 84, N-hydroxy-4-{5-[4-(2-ethylamino-1,3-thiazol-4-yl)phenoxy]pentyloxy}-benzamidine] | 30 ± 5.1^ab % | 6 ± 4.4^ac % | 44 ± 4.3 |  |
| N=C(NO)c1ccc(OCCCCCOc2ccc(-c3nc(-c4ccccc4)sc3CCN3CCOCC3)cc2)cc1 [Compound 254, N-hydroxy-4-(5-{4-[5-(2-morpholin-4-yl-ethyl)-2-phenyl-thiazol-4-yl]-phenoxy}-pentyloxy)-benzamidine] | 29 ± 6.3^b % | 11 ± 2.5^ac % | 40 ± 8.3 |  |
| CCc1nc(-c2ccc(OCCCCCOc3ccc(C(=N)NO)cc3)cc2)c(CCN2CCSCC2)s1 [Compound 256, N-hydroxy-4-(5-{4-[2-ethyl-5-(2-thiomorpholin-4-yl-ethyl)-thiazol-4-yl]-phenoxy}-pentyloxy)-benzamidine] | 26 ± 3.0^ab % | 12 ± 2.4^ac % | 49 ± 0.9 |  |
| CCN(CCN1CCOCC1)c1nc(-c2ccc(OCCCCCOc3ccc(C(=N)NO)cc3)cc2)c(C)s1 [Compound 124, N-hydroxy-4-[5-(4-{2-[ethyl-1-(2-morpholinoethyl)-amino]-5-methyl-1,3-thiazol-4-yl}phenoxy)pentyloxy]-benzamidine] | 21 ± 4.3^ab % | 17 ± 5.2^ac % |  | 49 ± 3.0 |
| Cc1nc(-c2ccc(OCCCCCOc3ccc(C(=N)NO)cc3)cc2)c(CCN2CCN(C)CC2)s1 [Compound 232, N-hydroxy-4-[5-(4-{2-methyl-5-[2-(4-methyl-piperazin-1-yl)-ethyl]-thiazol-4-yl}-phenoxy)-pentyloxy]-benzamidine] | 39 ± 5.2^b % | 37 ± 4.9^c % | 47 ± 9.4 |  |
| CCCCc1sc(N(C)CCN2CCOCC2)nc1-c1ccc(OCCCCCOc2ccc(C(=N)NO)cc2)cc1 [Compound 144, N-hydroxy-4-[5-(4-{5-butyl-2-[methyl-(2-morpholinoethyl)amino]-1,3-thiazol-4-yl}phenoxy)pentyloxy]-benzamidine] | 44 ± 10.5^ab % | 37 ± 4.3^ac % | 82 ± 6.7 |  |
| CNC(=O)c1sc(C)nc1-c1ccc(OCCCCCOc2ccc(C(=N)NO)cc2)cc1 [Compound 282, N-hydroxy-4-{5-[4-(5-methylcarbamoyl-2-methyl-thiazol-4-yl)-phenoxy]-pentyloxy}-benzamidine] | 49 ± 9.9^ab % | 45 ± 5.2^ac % | 73 ± 7.1 |  |
| Cc1nc(-c2ccc(OCc3cccc(COc4ccc(C(=N)NO)cc4)c3)cc2)c(C(C)C)s1 [Compound 209, N-hydroxy-4-{3-[4-(5-isopropyl-2-methyl-thiazol-4-yl)-phenoxymethyl]-benzyloxy}-benzamidine] | 41 ± 12.0^ab % | 50 ± 6.1^ac % | 74 ± 7.4 |  |
| N=C(NO)c1ccc(OCCCCCOc2ccc(-c3nc(N(CCN4CCOCC4)Cc4ccccc4)sc3CCN3CCOCC3)cc2)cc1 [Compound 269, N-hydroxy-4-(5-{4-[2-[benzyl-(2-morpholin-4-yl-ethyl)-amino]-5-(2-morpholin-4-yl-ethyl)-thiazol-4-yl]-phenoxy}-pentyloxy)-benzamidine] | 23 ± 5.2^ab % | 17 ± 4.4^ac % | 38 ± 3.7 |  |
| CC(C)c1sc(N(C)Cc2cccnc2)nc1-c1ccc(OCCCCCOc2ccc(C(=N)NO)cc2)cc1 [Compound 141, N-hydroxy-4-[5-(4-{5-isopropyl-2-[methyl-(pyridin-3-ylmethyl)amino]-1,3-thiazol-4-yl}phenoxy)pentyloxy]-benzamidine] | 65 ± 2.8% | 60 ± 7.5^ac % | 84 ± 8.8 |  |
| COCCNCc1sc(N(C)CCN2CCOCC2)nc1-c1ccc(OCCCCCOc2ccc(C(=N)NO)cc2)cc1 [Compound 318, N-hydroxy-4-[5-(4-{5-[(2-methoxy-ethylamino) -methyl]-2-[methyl-(2-morpholin-4-yl-ethyl)-amino]-thiazol-4-yl}-phenoxy) -pentyloxy]-benzamidine] | 27 ± 3.0^ab % | 12 ± 1.8^ac % | 43 ± 3.7 |  |
| CC(C)c1nc(-c2ccc(OCCCCCOc3ccc(C(=N)NO)cc3)cc2)c(CCNCCN2CCOCC2)s1 [Compound 243, N-hydroxy-4-[5-(4-{2-isopropyl-5-[2-(2-morpholin-4-yl-ethylamino)-ethyl]-thiazol-4-yl}-phenoxy)-pentyloxy]-benzamidine] | 24 ± 7.7^b % | 12 ± 2.3^ac % | 36 ± 4.9 |  |
| Cc1nc(-c2ccc(OCCCCCOc3ccc(C(=N)NO)cc3)cc2)c(CNC(C)(C)C)s1 [Compound 300, N-hydroxy-4-(5-{4-[5-(tert-butylamino-methyl)-2-methyl-thiazol-4-yl]-phenoxy}-pentyloxy)-benzamidine] | 12 ± 1.7^ab % | 8 ± 5.2^ac % | 48 ± 3 |  |
| CCNc1nc(-c2ccc(OCCCCCOc3ccc(C(=N)NO)cc3)cc2)c(CC)s1 [Compound 97, N-hydroxy-4-{5-[4-(5-ethyl-2-ethylamino-1,3-thiazol-4-yl)phenoxy]pentyloxy}-benzamidine] | 30 ± 5.7^ab % | 13 ± 4.3^ac % | 57 ± 5.2 |  |
| CCCN1CCC(c2nc(-c3ccc(OCCCCCOc4ccc(C(=N)NO)cc4)cc3)c(CC3CCCC3)s2)CC1 [Compound 68, N-hydroxy-4-{5-[4-(5-cyclopentylmethyl-2-(1-propyl-piperidin-4-yl)-1,3-thiazol-4-yl)phenoxy]pentyloxy}-benzamidine] | 14 ± 1.4^ab % | 8 ± 1.9^ac % | 42 ± 6.9 |  |
| COCCNc1nc(-c2ccc(OCCCCCOc3ccc(C(=N)NO)cc3)cc2)c(C)s1 [Compound 94, N-hydroxy-4-{5-[4-(2-(2-methoxyethyl)amino-5-methyl-1,3-thiazol-4-yl)phenoxy]pentyloxy}-benzamidine] | 20 ± 4.8^ab % | 16 ± 3.3^ac % | 45 ± 3 |  |
| Cc1nc(-c2ccc(OCCCCCNc3ccc(C(=N)NO)cc3)cc2)c(C(C)C)s1 [Compound 177, N-hydroxy-4-{5-[4-(5-isopropyl-2-methyl-1,3-thiazol-4-yl)-phenoxy]-pentylamino}-benzamidine] | 34 ± 10.2^ab % | 34 ± 5.7^ac % | 74 ± 10.1 |  |
